Patent US4297369A, “Certain muscle relaxant 3-methyl-2-benzofuran acetamides” (Kyowa Hakko Kogyo Co., Ltd., priority 1979, dated 1981)
Structures can show the parent of a compound that is named as a salt.

Tests used:
[1] = Acute toxicity, oral, mice; settings: mouse, in vivo, p.o., 7 days mortality
Protocol: (§1) Male dd mice weighing 19-21 g and male Wistar rats weighing 170-190 g were used in groups of 3-6 animals. The drugs were suspended in a 0.3% carboxymethyl cellulose solution and administered orally. […] As the reference compound, benzydamine.HCl was dissolved in water and administered orally. (In Example, 6, 7 and 8, the drugs and benzydamine. HCl were also administered in the same manner.

mice [2] = assay: Muscle relaxant activity: slant test; type: in vivo, male dd mice
Protocol: (§2) Groups of 5 male dd mice weighing 19-21 g were used. The mice which remained for a period of 3 min. on a 3 cm diameter rod rotating at 5 r.p.m. were selected and tested to determine the muscle relaxant activity at 1, 2 and 4 hr. after drug administration. The methods employed are as follows.
Each mouse was mounted on a 45°-inclined wire netting to examine whether it fell off or not.
(§3) In each test, the compound was considered to have the muscle relaxant activity when the mice fell off.

mice [3] = assay: Muscle relaxant activity: traction test; type: in vivo, male dd mice
Protocol: as §2
Forefeet of each mouse were placed on a wire to examine whether it fell off or not.
as §3

mice [4] = assay: Muscle relaxant activity: rotating rod test; type: in vivo, male dd mice
Protocol: as §2
Each mouse was mounted on a rotating rod to examine whether it fell off or not within 2 min.
as §3

[5] = test system: tonic extensor seizures in mice (electroshock); assay: Maximal electroshock convulsion test; type: in vivo, male dd mice; settings: 100 mg/Kg p.o., 1 hr before shock; blocking tonic extensor seizures
Protocol: (§4) Anticonvulsant activity was determined according to the following three methods.
Groups of 10 male dd mice weighing 22-24 g were used. The drugs were orally administered and one hr. later, the mice were subjected to an electric current (2000 V, 50 mA) for 0.2 sec. through corneal electrodes. Drug activity is expressed as the percent blocking tonic extensor seizures.

[6] = test system: tonic extensor seizures in mice (strychnine); assay: Strychnine convulsion test; type: in vivo, male dd mice; settings: 1 hr before strychnine 2 mg/kg s.c.
Protocol: as §4
Groups of 10 male dd mice weighing 19-21 g were used. The drugs were orally administered and one hr. later, strychnine was injected subcutaneously at 2 mg/kg. Drug activity is expressed as the percent blocking tonic extensor seizures.

[7] = test system: clonic seizures in mice (pentetrazol); assay: Pentetrazol convulsion test; type: in vivo, male dd mice; settings: 1 hr before pentetrazol 120 mg/kg s.c.
Protocol: as §4
Groups of 10 male dd mice weighing 19-21 g were used. The drugs were orally administered and one hr. later, pentetrazol was injected subcutaneously at 120 mg/kg. Drug activity is expressed as the percent blocking clonic seizures.

[8] = test system: carrageenin hind paw edema in rats; assay: Anti-inflammatory activity: carrageenin paw edema; type: in vivo, male Wistar rats; settings: edema 3 hr after carrageenin, vs control
Protocol: Groups of 5 male Wistar rats weighing 130-150 g were used. One hr. after drug administration, 0.1 ml of a 1% aqueous suspension of carrageenin was injected into the plantar surface of the right hind paw. The volume of the injected paw was measured before and 3 hr. after carrageenin injection by mercury displacement. Drug activity is expressed as the percent difference between the test and control groups' edema.

[9] = test system: acetic acid writhing in mice; assay: Analgesic activity: acetic acid writhing; type: in vivo, male dd mice; settings: number of writhes vs control
Protocol: Groups of 10 male dd mice weighing 19-21 g were used. One hr. after drug administration, 0.2 ml of a 0.7% aqueous solution of acetic acid was injected intraperitoneally. Ten min. after acetic acid injection, the number of writhes was counted for each mouse during the following 10 min. Drug activity is expressed as the percent inhibition of the number of writhes in the control group.

[10] = Acute toxicity, oral, rats; settings: rat, in vivo, p.o., 7 days mortality
Protocol: as §1

[11] = 300 mg/kg p.o., 1 hr after administration
[12] = 300 mg/kg p.o., 2 hr after administration
[13] = 300 mg/kg p.o., 4 hr after administration
[14] = 200 mg/kg p.o., 1 hr after administration
[15] = 200 mg/kg p.o., 2 hr after administration
[16] = 200 mg/kg p.o., 4 hr after administration

Structure (SMILES)	LD50 at 168 h [1] [mg/kg]	No. of falling mice/five tested mice, slant test (mice [2]; [11]) [mice/five tested mice]	No. of falling mice/five tested mice, slant test (mice [2]; [12]) [mice/five tested mice]	No. of falling mice/five tested mice, slant test (mice [2]; [13]) [mice/five tested mice]	No. of falling mice/five tested mice, traction test (mice [3]; [11]) [mice/five tested mice]	No. of falling mice/five tested mice, traction test (mice [3]; [12]) [mice/five tested mice]	No. of falling mice/five tested mice, traction test (mice [3]; [13]) [mice/five tested mice]	No. of falling mice/five tested mice, rotating rod test (mice [4]; [11]) [mice/five tested mice]	No. of falling mice/five tested mice, rotating rod test (mice [4]; [12]) [mice/five tested mice]	No. of falling mice/five tested mice, rotating rod test (mice [4]; [13]) [mice/five tested mice]	% Inhibition, Maximal Electroshock Test [5] [%]	% Inhibition, Strychnine Convulsion Test ([6]; 300 mg/Kg p.o.) [%]	% Inhibition, Pentetrazole Convulsion Test ([7]; 150 mg/Kg p.o.) [%]	Anti-inflammatory Activity, % Inhibition ([8]; 300 mg/Kg p.o.) [%]	Analgesic Activity, % Inhibition ([9]; 150 mg/Kg p.o.) [%]	LD50 at 168 h [10] [mg/kg]	further results
COc1ccc2oc(CC(=O)N(C)C)c(C)c2c1 [A, 2-dimethylcarbamoylmethyl-3-methyl-5 methoxybenzo[b]furan]	> 1000	3	1.5	0	2	2	0	5	3	1	30	60	40	23.3	83.6		
Cc1ccc2oc(CC(=O)N(C)C)c(C)c2c1 [B, 2-dimethylcarbamoylmethyl-3,5-dimethylbenzo[b]furan]	> 3000	5	4	0	5	5	0	5	5	0	80	88	90	10.2	24.0	> 3000	
CN(C)CCCOc1nn(Cc2ccccc2)c2ccccc12 [Benzydamine . HCl, reference compound]	500 to 1000										100					> 1500	No. of falling mice/five tested mice, slant test (mice [2]; [14]): 2 mice/five tested mice; No. of falling mice/five tested mice, slant test (mice [2]; [15]): 1 mice/five tested mice; No. of falling mice/five tested mice, slant test (mice [2]; [16]): 0 mice/five tested mice; No. of falling mice/five tested mice, traction test (mice [3]; [14]): 0 mice/five tested mice; No. of falling mice/five tested mice, traction test (mice [3]; [15]): 0 mice/five tested mice; No. of falling mice/five tested mice, traction test (mice [3]; [16]): 0 mice/five tested mice; No. of falling mice/five tested mice, rotating rod test (mice [4]; [14]): 4 mice/five tested mice; No. of falling mice/five tested mice, rotating rod test (mice [4]; [15]): 2 mice/five tested mice; No. of falling mice/five tested mice, rotating rod test (mice [4]; [16]): 0 mice/five tested mice; % Inhibition, Strychnine Convulsion Test ([6]; 100 mg/Kg p.o.): 70%; % Inhibition, Pentetrazole Convulsion Test ([7]; 200 mg/Kg p.o.): 0%; Anti-inflammatory Activity, % Inhibition ([8]; 400 mg/Kg p.o.): 20.9%; Analgesic Activity, % Inhibition ([9]; 400 mg/Kg p.o.): 95.2%
Cc1c(CC(=O)N(C)C)oc2ccc(-c3ccccc3)cc12 [C, 2-dimethylcarbamoylmethyl-3-methyl-5-phenylbenzo[b]furan]	> 1000	1.5	1.5	0	2	3	0	3	3	0	100	70	30	20.4	48.4		
Cc1c(CC(=O)N(C)C)oc2ccc(F)cc12 [D, 2-dimethylcarbamoylmethyl-3-methyl-5-fluorobenzo[b]furan]	> 1000	4.5	4.5	1	5	5	1	5	5	2	85	57	80	31.2	32.9		
